Data published in patent US8034811B2, “Hydroxamic acid esters and pharmaceutical use thereof” (Leo Pharma A/S, priority 2003, dated 2011).

Each molecule was assayed against T1, human intracellular domain of KDR (VEGF Receptor-2) (Homo sapiens, UniProt P35968) (assay: In vitro KDR kinase assay). Conditions: IC50 as molar concentration; GST-KDR-cyt, substrate phospholipase Cγ, ATP 100 μM, 30 min room temperature, time-resolved fluorometry.
T1 construct: A fusion protein containing the intracellular domain (amino acids 793 to 1357) of the KDR and N-terminally tagged to GST; made in house; host or cells: Sf9 insect cells (baculovirus, pDEST20) for GST-KDR-cyt; E. coli BL21 (pGEX-4T-1) for GST-PLCγ
Format: biochemical
Outline: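 Sf9-expressed, constitutively active human KDR intracellular domain, diluted 3000–3500 fold, incubated 30 min at room temperature with 100 μM ATP on phospholipase Cγ-coated wells in TBS pH 7.4 with Mg acetate, compounds up to 10 μM, 0.1% DMSO max. Phosphotyrosine detected by Eu-PY-20 time-resolved fluorescence; IC50 by linear interpolation around 50% inhibition.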

T1 sequence (P35968 794-1356 limits assumed): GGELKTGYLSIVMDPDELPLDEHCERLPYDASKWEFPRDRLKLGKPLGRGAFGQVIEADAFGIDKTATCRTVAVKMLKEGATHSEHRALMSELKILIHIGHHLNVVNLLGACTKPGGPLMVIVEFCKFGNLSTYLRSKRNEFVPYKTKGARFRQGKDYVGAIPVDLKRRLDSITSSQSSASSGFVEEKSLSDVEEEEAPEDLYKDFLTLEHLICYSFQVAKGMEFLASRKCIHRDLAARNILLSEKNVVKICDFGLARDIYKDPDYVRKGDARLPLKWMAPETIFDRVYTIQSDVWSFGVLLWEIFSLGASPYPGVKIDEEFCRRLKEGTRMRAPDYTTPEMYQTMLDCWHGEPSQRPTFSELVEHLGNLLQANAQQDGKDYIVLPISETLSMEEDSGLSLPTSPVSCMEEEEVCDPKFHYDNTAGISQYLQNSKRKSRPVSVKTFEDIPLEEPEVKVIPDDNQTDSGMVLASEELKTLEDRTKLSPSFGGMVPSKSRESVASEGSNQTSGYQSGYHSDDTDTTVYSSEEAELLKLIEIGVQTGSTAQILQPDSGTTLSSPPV

Row | SMILES | IC50
1 | O=C(NOCC1CC=CCC1)c1ccccc1NCc1ccncc1 (stereo not drawn) [Compound 128, N-(Cyclohex-3-enylmethoxy)-2-[(pyridin-4-ylmethyl)-amino]-benzamide] | 15.8 nM
2 | CC1CC=CCC1CONC(=O)c1ccccc1NCc1ccncc1 (stereo not drawn) [Compound 129, N-(6-Methyl-cyclohex-3-enylmethoxy)-2-[(pyridin-4-ylmethyl)-amino]-benzamide] | 10 nM
3 | O=C(NOC[C@H]1CC[C@H](CO)CC1)c1ccccc1NCc1ccncc1 [Compound 130, N-(trans-4-Hydroxymethyl-cyclohexylmethoxy)-2-[(pyridin-4-ylmethyl)-amino]-benzamide] | 50.1 nM
4 | O=C(NOCC12CC3CC(CC(C3)C1)C2)c1ccccc1NCc1ccncc1 [Compound 132, N-(Adamantan-1-ylmethoxy)-2-[(pyridin-4-ylmethyl)-amino]-benzamide] | 100 nM
5 | CC1(C)[C@H]2CC[C@@H](CONC(=O)c3ccccc3NCc3ccncc3)[C@@H]1C2 [Compound 134] | 25.1 nM
6 | O=C(NOCC1CCCO1)c1ccccc1NCc1ccncc1 (stereo not drawn) [Compound 135, 2-[(Pyridin-4-ylmethyl)-amino]-N-(tetrahydro-furan-2-ylmethoxy)-benzamide] | 79.4 nM
7 | O=C(NOCC1CCOCC1)c1ccccc1NCc1ccncc1 [Compound 141, 2-[(Pyridin-4-ylmethyl)-amino]-N-(tetrahydro-pyran-4-ylmethoxy)-benzamide] | 50.1 nM
8 | O=C(NOCC1CCCCO1)c1ccccc1NCc1ccncc1 (stereo not drawn) [Compound 142, 2-[(Pyridin-4-ylmethyl)-amino]-N-(tetrahydro-pyran-2-ylmethoxy)-benzamide] | 39.8 nM
9 | Cc1nc(CONC(=O)c2ccc(F)cc2NCc2ccncc2)cs1 [Compound 143, 4-Fluoro-N-(2-methyl-thiazol-4-ylmethoxy)-2-[(pyridin-4-ylmethyl)amino]-benzamide] | 100 nM
10 | N#Cc1ccc(CONC(=O)c2cccnc2NCc2ccncc2)cc1 [Compound 156, N-(4-Cyano-benzyloxy)-2-[(pyridin-4-ylmethyl)-amino]-nicotinamide] | 63.1 nM
11 | N#Cc1ccc(CONC(=O)c2cccnc2NCc2ccncc2)c(Cl)c1 [Compound 157, N-(2-Chloro-4-cyano-benzyloxy)-2-[(pyridin-4-ylmethyl)-amino]-nicotinamide] | 50.1 nM
12 | N#Cc1ccc(CONC(=O)c2cccnc2NCc2ccncc2)c(F)c1 [Compound 158, N-(4-Cyano-2-fluoro-benzyloxy)-2-[(pyridin-4-ylmethyl)-amino]-nicotinamide] | 79.4 nM
13 | O=C(NOCc1ccccc1I)c1cccnc1NCc1ccncc1 [Compound 160, N-(2-Iodo-benzyloxy)-2-[(pyridin-4-ylmethyl)-amino]-nicotinamide] | 63.1 nM
14 | O=C(NOCc1ccccc1Br)c1cccnc1NCc1ccncc1 [Compound 161, N-(2-Bromo-benzyloxy)-2-[(pyridin-4-ylmethyl)-amino]-nicotinamide] | 63.1 nM
15 | COc1cc(C#N)ccc1CONC(=O)c1cccnc1NCc1ccncc1 [Compound 162, N-(4-Cyano-2-methoxy-benzyloxy)-2-[(pyridin-4-ylmethyl)-amino]-nicotinamide] | 63.1 nM
16 | O=C(NOCC1CCCC1)c1cccnc1NCc1ccncc1 [Compound 164, N-Cyclopentylmethoxy-2-[(pyridin-4-ylmethyl)-amino]-nicotinamide] | 7.94 nM
17 | O=C(NCCCO)c1cc(CNc2ccccc2C(=O)NOCC2CCCC2)ccc1F [Compound 188, 5-[(2-Cyclopentylmethoxycarbamoyl-phenylamino)-methyl]-2-fluoro-N-(3-hydroxypropyl)-benzamide] | 79.4 nM
18 | O=C(NOCc1ccc(F)cc1)c1ccccc1NCc1ccc2c(c1)CCO2 [Compound 195, 2-[(2,3-Dihydro-benzofuran-5-ylmethyl)-amino]-N-(4-fluoro-benzyloxy)-benzamide] | 79.4 nM

Row | SMILES | IC50
19 | N#Cc1ccc(CONC(=O)c2ccccc2NCc2ccc3c(c2)CCO3)cc1 [Compound 196, N-(4-Cyano-benzyloxy)-2-[(2,3-dihydro-benzofuran-5-ylmethyl)-amino]-benzamide] | 79.4 nM
20 | O=C(NOCc1ccccc1)c1ccccc1NCc1ccc2occc2c1 [Compound 198, 2-[(Benzofuran-5-ylmethyl)-amino]-N-benzyloxy-benzamide] | 63.1 nM
21 | O=C(NOCc1ccc(F)cc1)c1ccccc1NCc1ccc2occc2c1 [Compound 199, 2-[(Benzofuran-5-ylmethyl)-amino]-N-(4-fluoro-benzyloxy)-benzamide] | 50.1 nM
22 | O=C(NOCc1ccc(F)cc1)c1ccccc1NCc1ccnc(Br)c1 [Compound 204, 2-[(2-Bromo-pyridin-4-ylmethyl)-amino]-N-(4-fluoro-benzyloxy)benzamide] | 63.1 nM
23 | N#Cc1ccc(CONC(=O)c2ccccc2NCc2ccnc(N)c2)cc1 [Compound 206, 2-[(2-Amino-pyridin-4-ylmethyl)-amino]-N-(4-cyano-benzyloxy)-benzamide] | 39.8 nM
24 | O=C(NOCc1ccc(F)cc1)c1ccccc1NCc1ccnc(N2CCOCC2)c1 [Compound 207, N-(4-Fluoro-benzyloxy)-2-[(2-morpholin-4-yl-pyridin-4-ylmethyl)-amino]-benzamide] | 79.4 nM
25 | CS(=O)(=O)Nc1cc(CNc2ccccc2C(=O)NOCC2CCCC2)ccn1 [Compound 208, N-Cyclopentylmethoxy-2-[(2-methanesulfonylamino-pyridin-4-ylmethyl)-amino]-benzamide] | 79.4 nM
26 | CNC(=O)Nc1cc(CNc2ccccc2C(=O)NOCc2ccc(C#N)cc2)ccn1 [Compound 210, N-(4-Cyano-benzyloxy)-2-{[2-(3-methyl-ureido)-pyridin-4-ylmethyl]-amino}-benzamide] | 7.94 nM
27 | CNC(=O)Nc1cc(CNc2ccccc2C(=O)NOCc2ccc(C#N)cc2OC)ccn1 [Compound 211, N-(4-Cyano-2-methoxy-benzyloxy)-2-{[2-(3-methyl-ureido)-pyridin-4-ylmethyl]-amino}-benzamide] | 20 nM
28 | CNC(=O)Nc1cc(CNc2ccccc2C(=O)NOCC2CCCC2)ccn1 [Compound 212, N-Cyclopentylmethoxy-2-{[2-(3-methyl-ureido)-pyridin-4-ylmethyl]-amino}-benzamide] | 10 nM
29 | CNC(=O)Nc1cc(CNc2ccccc2C(=O)NOCc2ccc(C)c(F)c2F)ccn1 [Compound 213, N-(2,3-Difluoro-4-methyl-benzyloxy)-2-{[2-(3-methyl-ureido)-pyridin-4-ylmethyl]-amino}-benzamide] | 7.94 nM
30 | CCOC(=O)CNC(=O)Nc1cc(CNc2ccccc2C(=O)NOCc2ccc(C#N)cc2)ccn1 [compound 214] | 50.1 nM
31 | CCOC(=O)CNC(=O)Nc1cc(CNc2ccccc2C(=O)NOCC2CCCC2)ccn1 [compound 215] | 63.1 nM
32 | N#Cc1ccc(CONC(=O)c2ccccc2NCc2ccnc(NC(=O)NCC(=O)O)c2)cc1 [compound 216] | 10 nM
33 | O=C(O)CNC(=O)Nc1cc(CNc2ccccc2C(=O)NOCC2CCCC2)ccn1 [compound 217] | 7.94 nM
34 | C=C(C)C(=O)OCCNC(=O)Nc1cc(CNc2ccccc2C(=O)NOCC2CCCC2)ccn1 [compound 219] | 39.8 nM
35 | N#Cc1ccc(CONC(=O)c2ccccc2NCc2ccnc(NC(=O)NCCO)c2)cc1 [compound 220] | 7.94 nM
36 | O=C(NCCO)Nc1cc(CNc2ccccc2C(=O)NOCC2CCCC2)ccn1 [compound 221] | 7.94 nM
